The values below come from publication PMC5397431, “Multigeneration toxicity of imidacloprid and thiacloprid to Folsomia candida” (Ecotoxicology (London, England), 2017).

For one data set, the system named is Folsomia candida. Briefly: Multigeneration toxicity test (survival and reproduction) with springtails in spiked LUFA 2.2 soil. The format is in vivo. To be noted: for EC50: number of juveniles. The method, then: F. candida were taken from cultures at the Department of Ecological Science at the Vrije Universiteit in Amsterdam. To obtain age-synchronized animals, adults from the culture were separated in boxes with a layer of plaster of Paris over a period of 2–3 days to lay eggs, after which they were removed. After removal of the adults, the eggs were incubated under a 12 h light/12 h dark regime at 20 °C and 75% relative humidity, where they hatched and grew. Juveniles of 10–12 days old were used for testing.
All tests were performed in the natural standard LUFA 2.2 (Lufa Speyer, Germany), a loamy sand with 1.59 ± 0.13% organic carbon, pH in 0.01 M CaCl2 of 5.4 ± 0.2, and water holding capacity (WHC) of 43.5 ± 2.8% of its dry weight.
Pure imidacloprid and thiacloprid (purity 98%) were kindly provided by Bayer CropScience, Monheim, Germany. Test concentrations of imidacloprid and thiacloprid were based on the results of earlier tests. Stock solution of both compounds in water were prepared, to spike the chemicals into the soil and at the same time bringing moisture content to the desired level of 50% of the WHC. To ensure complete thiacloprid dissolution, a small amount of acetone was added to the stock solution. This stock solution was used to spike soil with the highest test concentration and further diluted for spiking soil with the lower concentrations tested. Considering the low amount of acetone needed to make thiacloprid completely dissolve, no attempts were made to correct for that by adding acetone to the lower concentrations and control in the multigeneration test. All soils were thoroughly mixed to achieve a homogenous distribution of the test chemicals in the test soil.
Multigeneration tests started with a control, […] imidacloprid (0, 0.001, 0.003, 0.01, 0.03, 0.1, 0.3, 1.0 mg/kg dry soil) and 9 thiacloprid concentrations (0, 0.0015, 0.0045, 0.014, 0.041, 0.11, 0.31, 1.1, 3.3, 10.0 mg/kg dry soil). Batches of soil sufficient to perform three toxicity tests were prepared. After filling test jars for the parent generation exposure, the remaining spiked soil was stored in glass jars in a climate room at 20 °C for subsequent exposure of the next two generations. Moisture content of the spiked soil was checked regularly by weighing the jars, and replenished by adding deionized water if needed.
After 28 days (35 days for the second generation), the juveniles from the same exposure concentration were pooled in the same container with a moist plaster of Paris bottom and incubated overnight before being transferred to the next cycle of exposure. This experiment spanned a total of three continuous generations (referred to as F0, F1, and F2).

The next data set deals with Aphis gossypii. Also noted: method as in Shi et al. (2011). To be noted: exposed dermally for 48 h; ref Shi et al. (2011); cited from earlier work.
[1] abbreviates: F0 generation, 28 days, LUFA 2.2 soil, nominal concentrations.
[2] abbreviates: F1 generation, 35 days, soil spiked at start of F0, nominal concentrations.
Setting [3] is: F2 generation, 28 days, soil spiked at start of F0, nominal concentrations.
[4] abbreviates: range over the three generations, Lufa 2.2, pure compound, this study.

The structures appear in SMILES notation. “And” between values parts separate entries of the source, which are not always exact repeats. Equal entries are not always repeated.

`O=[N+]([O-])NC1=NCCN1Cc1ccc(Cl)nc1` [Imidacloprid, imidacloprid]: the NOEC in the data set with Folsomia candida (setting [1]) was 0.1 mg/kg dry soil and 0.10 mg/kg dry soil; with Folsomia candida (setting [2]), 0.1 mg/kg dry soil and 0.10 mg/kg dry soil; in the data set on Folsomia candida (setting [3]), 0.1 mg/kg dry soil and 0.10 mg/kg dry soil. The LC50 in the data set on Folsomia candida (F0 generation, 28 days, adult survival, LUFA 2.2 soil, nominal concentrations) is reported as 0.44 mg/kg dry soil; with Folsomia candida (setting [2]) it was 0.39 mg/kg dry soil; with Folsomia candida (setting [3]), 0.21 mg/kg dry soil. The EC50 is reported as 0.29 mg/kg dry soil with Folsomia candida (setting [1]), 0.12 mg/kg dry soil in the data set on Folsomia candida (setting [2]) and 0.14 mg/kg dry soil with Folsomia candida (setting [3]). In the data set on Folsomia candida (Folsomia candida, in vivo, 35 days, pH 5.4), this compound displayed an EC10 of 0.080 mg/kg dry soil. The “EC50, range over generations” value with Folsomia candida (setting [4]) is listed as 0.12–0.29 mg/kg dry soil. The “LC50, range over generations” value in the data set on Folsomia candida (setting [4]) is given as 0.21–0.44 mg/kg dry soil. In addition, in the data set with Aphis gossypii, the “times more sensitive than to thiacloprid” value is “about 7.5 times”.
